Experiments:
[1] = target: Sodium-dependent serotonin transporter (Homo sapiens, UniProt P31645); format: cell-based, HEK293
Description: Inhibition of wild type human SERT expressed in HEK293 cells assessed as inhibition of [3H]-5HT reuptake preincubated for 5 mins followed by [3H]5HT addition and measured after 1 min by liquid scintillation counting analysis

[2] = target: Sodium-dependent dopamine transporter (Homo sapiens, UniProt Q01959); test: Inhibition of wild type human dopamine transporter expressed in HEK293 cells assessed as inhibition of [3H]dopamine reuptake preincubated for 5 mins followed by [3H]dopamine addition and measured after 1 min by liquid scintillation analysis; format: cell-based
[3] = target: Sodium-dependent noradrenaline transporter (Homo sapiens, UniProt P23975); test: Inhibition of wild type human NET expressed in HEK293 cells assessed as inhibition of [3H]-MPP+ reuptake preincubated for 5 mins followed by [3H]MPP+ addition and measured after 3 mins by liquid scintillation counting analysis; format: cell-based
Sequence of Sodium-dependent noradrenaline transporter (P23975 whole entry): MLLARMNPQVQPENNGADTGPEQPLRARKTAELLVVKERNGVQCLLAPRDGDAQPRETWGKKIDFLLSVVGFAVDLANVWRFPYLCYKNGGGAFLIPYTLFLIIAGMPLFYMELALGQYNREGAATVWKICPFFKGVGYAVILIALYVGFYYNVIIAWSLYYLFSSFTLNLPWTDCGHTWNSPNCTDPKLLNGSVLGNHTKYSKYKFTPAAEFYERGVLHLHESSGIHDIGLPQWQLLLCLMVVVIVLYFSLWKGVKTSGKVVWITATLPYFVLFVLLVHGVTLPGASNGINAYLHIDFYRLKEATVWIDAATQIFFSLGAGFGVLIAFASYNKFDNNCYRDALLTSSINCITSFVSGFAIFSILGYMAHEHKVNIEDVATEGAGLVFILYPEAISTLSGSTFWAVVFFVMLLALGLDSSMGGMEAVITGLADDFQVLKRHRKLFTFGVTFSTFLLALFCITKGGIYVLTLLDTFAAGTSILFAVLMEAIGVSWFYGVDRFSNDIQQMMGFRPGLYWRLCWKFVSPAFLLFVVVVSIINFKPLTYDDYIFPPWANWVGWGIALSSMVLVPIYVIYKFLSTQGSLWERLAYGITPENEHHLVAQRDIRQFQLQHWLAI

Sequence of Sodium-dependent serotonin transporter (P31645 whole entry): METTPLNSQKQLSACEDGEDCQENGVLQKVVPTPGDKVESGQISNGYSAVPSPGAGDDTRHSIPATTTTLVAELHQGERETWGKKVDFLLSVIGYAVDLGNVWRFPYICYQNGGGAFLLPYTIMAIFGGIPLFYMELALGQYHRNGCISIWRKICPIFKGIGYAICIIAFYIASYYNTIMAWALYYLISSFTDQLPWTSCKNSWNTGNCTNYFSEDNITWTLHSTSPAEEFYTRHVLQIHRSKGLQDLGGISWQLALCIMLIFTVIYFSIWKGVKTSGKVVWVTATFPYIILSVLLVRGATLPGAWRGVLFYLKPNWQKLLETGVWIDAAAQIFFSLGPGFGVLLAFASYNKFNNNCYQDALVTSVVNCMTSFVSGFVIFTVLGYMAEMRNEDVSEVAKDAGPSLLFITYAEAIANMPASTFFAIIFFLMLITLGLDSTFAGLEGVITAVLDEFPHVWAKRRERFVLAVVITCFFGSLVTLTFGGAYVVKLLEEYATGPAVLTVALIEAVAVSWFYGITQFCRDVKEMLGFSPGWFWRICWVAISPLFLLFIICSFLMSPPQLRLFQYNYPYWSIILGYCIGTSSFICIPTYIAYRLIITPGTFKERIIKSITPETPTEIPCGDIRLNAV
Sequence of Sodium-dependent dopamine transporter (Q01959 whole entry): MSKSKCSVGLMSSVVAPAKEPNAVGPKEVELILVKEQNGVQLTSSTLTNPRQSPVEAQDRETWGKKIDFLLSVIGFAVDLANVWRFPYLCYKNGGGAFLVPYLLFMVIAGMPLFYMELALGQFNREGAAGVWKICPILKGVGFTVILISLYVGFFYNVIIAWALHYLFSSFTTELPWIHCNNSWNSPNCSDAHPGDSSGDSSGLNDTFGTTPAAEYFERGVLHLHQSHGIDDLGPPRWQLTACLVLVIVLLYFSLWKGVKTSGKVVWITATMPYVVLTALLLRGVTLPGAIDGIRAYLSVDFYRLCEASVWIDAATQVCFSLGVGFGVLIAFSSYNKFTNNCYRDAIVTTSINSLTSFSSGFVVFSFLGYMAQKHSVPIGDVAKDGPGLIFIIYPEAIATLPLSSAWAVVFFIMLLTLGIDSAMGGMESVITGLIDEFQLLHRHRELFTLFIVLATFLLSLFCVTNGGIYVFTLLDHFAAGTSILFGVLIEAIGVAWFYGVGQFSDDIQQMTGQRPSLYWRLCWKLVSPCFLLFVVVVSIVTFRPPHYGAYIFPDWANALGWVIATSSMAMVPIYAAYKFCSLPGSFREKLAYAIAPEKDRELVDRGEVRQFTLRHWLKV

Row | SMILES | IC50 ([1]; hek293) | IC50 ([2]; hek293) | IC50 ([3]; hek293) | IC50 ([2]; read-out: IC50) | IC50 ([3]; read-out: IC50) | IC50 ([1]; read-out: IC50)
1 | Cc1ccc(C(c2ccc(C)cc2)[S+]([O-])Cc2csc(C3CC3)n2)cc1 (stereo not drawn) | Not Active | Not Active | Not Active | – | – | –
2 | [O-][S@@+](Cc1cncs1)[C@@H](c1ccccc1)c1ccc(Cl)cc1 | Not Active | – | – | 2.3 µM | 72 µM | –
3 | Cc1nc(C[S+]([O-])C(c2ccccc2)c2ccccc2)sc1C (stereo not drawn) | – | – | – | 33.3 µM | 107 µM | 201 µM
4 | [O-][S@+](Cc1cncs1)C(c1ccc(F)cc1)c1ccc(F)cc1 | Not Active | – | Not Active | 22.5 µM | – | –
5 | COc1ccc([C@H](c2ccccc2)[S@@+]([O-])Cc2cncs2)cc1 | Not Active | – | – | 3.8 µM | 196 µM | –
6 | [O-][S@@+](Cc1cncs1)[C@@H](c1ccccc1)c1ccc(Br)cc1 | Not Active | – | – | 1.6 µM | 566 µM | –
7 | Cc1ccc([C@@H](c2ccccc2)[S@@+]([O-])Cc2cncs2)cc1 | Not Active | – | Not Active | 6 µM | – | –
8 | Cc1ccc(C(c2ccc(C)cc2)[S+]([O-])Cc2cscn2)cc1 (stereo not drawn) | Not Active | – | Not Active | 7.32 µM | – | –
9 | [O-][S@@+](Cc1cncs1)C(c1ccc(F)cc1)c1ccc(F)cc1 | Not Active | – | – | 5.3 µM | 85 µM | –
10 | [O-][S@@+](Cc1cncs1)[C@@H](c1ccccc1)c1ccc(F)cc1 | Not Active | – | – | 2 µM | 129 µM | –
11 | Cc1ccc(C(c2ccc(C)cc2)[S+]([O-])Cc2nccs2)cc1 (stereo not drawn) | Not Active | – | Not Active | 29.4 µM | – | –
12 | COc1ccc(C(c2ccc(OC)cc2)[S+]([O-])Cc2cncs2)cc1 (stereo not drawn) | Not Active | – | Not Active | 71.6 µM | – | –
13 | CCCc1nc(C[S+]([O-])C(c2ccccc2)c2ccccc2)cs1 (stereo not drawn) | Not Active | – | Not Active | 28.4 µM | – | –
14 | [O-][S@+](Cc1cncs1)[C@@H](c1ccccc1)c1ccc(Cl)cc1 | Not Active | – | Not Active | 33 µM | – | –
15 | [O-][S@+](Cc1cncs1)[C@@H](c1ccccc1)c1ccc(Br)cc1 | Not Active | – | – | 22.4 µM | 365 µM | –
16 | [O-][S+](Cc1nccs1)C1c2ccccc2-c2ccccc21 (stereo not drawn) | Not Active | Not Active | Not Active | – | – | –
17 | [O-][S@+](Cc1cncs1)[C@H](c1ccccc1)c1ccc(C(F)(F)F)cc1 | Not Active | Not Active | Not Active | – | – | –
18 | [O-][S@+](Cc1cncs1)[C@H](c1ccccc1)c1ccc(Cl)cc1 | – | – | – | 7.4 µM | 36.5 µM | 140 µM
19 | [O-][S@@+](Cc1cncs1)[C@H](c1ccccc1)c1ccc(F)cc1 | Not Active | – | – | 7.4 µM | 104 µM | –
20 | [O-][S+](Cc1cscn1)C(c1ccc(F)cc1)c1ccc(F)cc1 (stereo not drawn) | Not Active | – | Not Active | 6.76 µM | – | –
21 | CCc1nc(C[S+]([O-])C(c2ccccc2)c2ccccc2)cs1 (stereo not drawn) | Not Active | – | Not Active | 14.6 µM | – | –
22 | [O-][S+](Cc1cscn1)C(c1ccccc1)c1ccccc1 (racemic) | Not Active | – | Not Active | 6.66 µM | – | –
23 | [O-][S@+](Cc1cncs1)[C@@H](c1ccccc1)c1ccc(F)cc1 | Not Active | – | Not Active | 27.8 µM | – | –
24 | [O-][S@@+](Cc1cncs1)C(c1ccc(Cl)cc1)c1ccc(Cl)cc1 | Not Active | – | – | 4.1 µM | 89.8 µM | –
25 | COc1ccc([C@@H](c2ccccc2)[S@+]([O-])Cc2cncs2)cc1 | – | – | – | 36.3 µM | 261 µM | 24.7 µM
26 | [O-][S@+](Cc1cncs1)[C@H](c1ccccc1)c1ccc(Br)cc1 | – | – | – | 4.7 µM | 22.7 µM | 29.7 µM

Reference: ChEMBL document CHEMBL4376858, “Structure-Activity Relationships of Novel Thiazole-Based Modafinil Analogues Acting at Monoamine Transporters” (J Med Chem, 2020)
